# Data taken from publication PMC8187479, “Sugar phosphate activation of the stress sensor eIF2B” (Nature Communications, 2021).
# Molecular target: T1, eIF2Bα (Homo sapiens, UniProt Q14232)
# T1 construct: made in house; host or cells: E. coli BL21(DE3)
# T1 sequence (Q14232 1-305): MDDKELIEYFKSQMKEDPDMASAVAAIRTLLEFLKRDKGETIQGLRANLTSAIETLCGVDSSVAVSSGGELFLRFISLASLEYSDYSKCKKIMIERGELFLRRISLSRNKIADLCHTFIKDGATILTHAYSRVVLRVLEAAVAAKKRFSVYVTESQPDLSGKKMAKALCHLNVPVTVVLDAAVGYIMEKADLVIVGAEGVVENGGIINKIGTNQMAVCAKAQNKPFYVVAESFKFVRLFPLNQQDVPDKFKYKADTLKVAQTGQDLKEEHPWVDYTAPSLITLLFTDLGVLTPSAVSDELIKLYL
# Assay: MIDAS (mass spectrometry integrated with equilibrium dialysis) metabolite binding screen
# Conditions: MIDAS metabolite binding screen with eIF2Bα; sheet "eIF2Ba"
# Protocol: Metabolites were combined into four defined screening pools. […] To the reverse side, 300 μL of 50 μM per metabolite pool was aliquoted and sealed (metabolite chamber). Loaded dialysis plates were placed in the dark at 4 °C on a rotating shaker (120 rpm) and incubated for 40 h. Post-dialysis, metabolites were isolated from each chamber by cold methanol extraction. Each sample was analyzed in technical triplicate by FIA-MS on a SCIEX X500R QTOF MS with interspersed blanks injections. The input metabolite pools were assayed at the beginning, middle, and end of each MS method batch for QC and normalization.
# MIDAS FIA-MS spectra were processed in SCIEX OS 1.6 software to determine metabolite abundances by integrating the mean area under the curve for each extracted ion chromatogram. For each dialysis replicate, log2(fold change) for each metabolite was calculated as the difference between the log2 abundance in the protein chamber and metabolite chamber. For each technical triplicate, up to one outlier was removed using a z-score cutoff of five (<0.1% of observations). The corrected technical replicates were collapsed to one mean fold-change summary per protein-metabolite pair. To remove fold-change variation that was not specific to a given metabolite-protein pair, the first three principal components of the total screening dataset were removed on a per metabolite pool basis by subtracting the projection of the first 3 principal components, creating log2(corrected fold change). Protein-metabolite z-scores were determined by comparing the target protein-metabolite log2(corrected fold change) to a no-signal model for that metabolite using measures of the central tendency (median) and standard deviation (extrapolated from the 25–75% quantiles), which are robust to the signals in the tails of a metabolite’s fold-change distribution. Z-scores were false-discovery rate controlled using Storey’s q-value (qvalue, R) and protein-metabolite interactions with q-values < 0.1 were considered significant.
row,log2(corrected fold change),Compound
1,0.006339,OC[C@@H](O)C(O)[C@H](O)CO [D-Arabitol]
2,-0.03103,OC[C@H]1O[C@@H](O[C@H]2[C@H](O)[C@@H](O)[C@H](O)O[C@@H]2CO)[C@H](O)[C@@H](O)[C@@H]1O [D-Cellobiose]
3,-0.005422,N[C@H]1C(O)O[C@H](COP(=O)(O)O)[C@@H](O)[C@@H]1O (stereo partly drawn) [D-Glucosamine 6-phosphate]
4,-0.01884,O=C[C@H](O)[C@@H](O)[C@H](O)[C@H](O)C(=O)O [D-Glucuronic acid]
5,0.01187,"O=C1O[C@H]2[C@H](OC(O)[C@@H]2O)[C@@H]1O (stereo partly drawn) [D-Glucurono-6,3-lactone]"
6,-0.02892,O=C[C@H](O)CO [D-Glyceraldehyde]
7,-0.0058,O=C(O)CC[C@@H](O)C(=O)O [D-Hydroxyglutaric acid]
8,-0.01671,C[C@@H](O)C=O [D-Lactaldehyde]

# More lines, now with the values behind:
row,Compound,log2(corrected fold change)
1,Nc1nc2c(ncn2[C@@H]2O[C@@H]3COP(=O)(O)O[C@H]3[C@H]2O)c(=O)[nH]1 [Cyclic GMP],0.01224
2,NCCS [Cysteamine],0.01963
3,Nc1ccn([C@@H]2O[C@H](COP(=O)(O)OP(=O)(O)O)[C@@H](O)[C@H]2O)c(=O)n1 [Cytidine 5-diphosphate],0.02612
4,C[N+](C)(C)CCOP(=O)(O)OP(=O)([O-])OC[C@H]1O[C@@H](n2ccc(N)nc2=O)[C@H](O)[C@@H]1O [Cytidine 5-diphosphocholine],-0.000615
5,Nc1ccn([C@@H]2O[C@H](COP(=O)(O)OP(=O)(O)OP(=O)(O)O)[C@@H](O)[C@H]2O)c(=O)n1 [Cytidine 5-triphosphate],0.04784
6,O=C(O)[C@@H](O)[C@H](O)[C@H](O)CO [D-Arabinonic acid],-0.01209
7,O=C(O)[C@H](O)[C@@H](O)[C@H](O)[C@H](O)CO [D-Gluconic acid],-0.01138
8,OC[C@H]1OC(O)[C@H](O)[C@@H](O)[C@@H]1O (stereo partly drawn) [D-Glucose],-0.01874
9,N[C@H](CCC(=O)O)C(=O)O [D-Glutamic acid],-0.01634

# Same assay, conditions: MIDAS screen, sheet eIF2Ba; metabolites screened in pools 1-4; p-value and q-value given
row,log2(corrected fold change),Compound
1,0.03257,N[C@H](CC(=O)O)C(=O)O [D-Aspartate]
2,-0.09045,O=C(CO)[C@@H](O)[C@H](O)[C@H](O)CO [D-Fructose]
3,-0.09045,O=C[C@H](O)[C@@H](O)[C@@H](O)[C@H](O)CO [D-Galactose]
4,0.1378,N[C@H]1C(O)O[C@H](CO)[C@@H](O)[C@@H]1O (stereo partly drawn) [D-Glucosamine]
5,0.09175,O=C[C@H](O)COP(=O)(O)O [D-Glyceraldehyde 3-phosphate]
6,0.1183,O=P(O)(O)OC[C@H](O)CO [D-Glycerol 1-phosphate]

# More lines, now with the values behind:
row,Compound,log2(corrected fold change)
1,Nc1ccn([C@@H]2O[C@H](CO)[C@@H](O)[C@H]2O)c(=O)n1 [Cytidine],0.2698
2,O=C(O)C(O)COP(=O)(O)O [D-3-Phosphoglyceric acid],0.07991
3,"O=C1OC[C@@H](O)[C@H]1O [D-Erythrono-1,4-lactone]",-0.2396
4,"O=C(COP(=O)(O)O)[C@@H](O)[C@H](O)[C@H](O)COP(=O)(O)O [D-Fructose 1,6-bisphosphate]",-0.7792
5,O=P(O)(O)OC[C@H]1OC(O)(CO)[C@@H](O)[C@@H]1O (stereo partly drawn) [D-Fructose 6-phosphate],-0.1344
6,O=P(O)(O)O[C@H]1O[C@H](CO)[C@H](O)[C@H](O)[C@H]1O [D-Galactose 1-phosphate],-0.1344
7,"O=P(O)(O)OC[C@H]1O[C@H](OP(=O)(O)O)[C@H](O)[C@@H](O)[C@@H]1O [D-Glucose 1,6-bisphosphate]",-0.7792
8,O=P(O)(O)O[C@H]1O[C@H](CO)[C@@H](O)[C@H](O)[C@H]1O [D-Glucose 1-phosphate],-0.1344
